Measured values: patent US10106540B2, “HDAC6 inhibitors and their uses” (Universität Regensburg, priority 2014, dated 2018)
Entries after “also recorded” stand apart in the source; their conditions may differ.

Assays:
[1] = test system: BV-173 cells; assay: Western blot analysis in BV-173 cells; format: cell-based, human
Protocol: BV-173 cells (BCR-ABL positive leukemic cells) were used as control cells left (Ctl) or with 1 μM MARB1, 2 μM MARB2 or 2 mM VPA treated for 24 h. These concentrations were chosen to achieve equipotent effects on cells which was in preliminary tests (data not shown). Shown are acetylated tubulin-α, α-tubulin, acetylated histone H3, WT1, survivin and β-actin. The total amount of α-tubulin and β-actin were used as loading control. Mr, relative molecular weight in kilodaltons. The degradation of WT1 in patients treated with VPA cells bases on a loss of WT1 mRNA and the increased degradation of WT1 protein by induction of the E2 ubiquitin conjugase UbcH8.
(§1) Flow cytometric analysis of the induction of (A) apoptotic DNA fragmentation and (B) Cell cycle analysis of BV 173 cells. The cells were kept as control cells (Ctl), treated with 1 μM or 2 μM MARB1 MARB2 and 0.2 or 0.5 μM imatinib for 48 h. The data was received by two independent experiments. The individual compounds show only slight effects in the used concentrations; whereas their combination can effectively kill leukemic cells. (C) Western blot analysis on data from the BCR-ABL, acetylated tubulin and α-sliced PARP1; the total amount of tubulin-α serves as a loading control. BV-173 cells were treated for 24 h with 1 μM, or 2 μM MARB1 or MARB2.
(§2) Human leukemia cell lines BV 173 and K562 with BCR-ABL mutation (Leibniz Institute DSMZ—German Collection of Microorganisms and Cell Cultures, DSMZ Accession Nos: ACC-20 and ACC-10).
(§3) The assay is carried out as described in Buchwald et al. 2010 and Buchwald et al. 2013. Briefly, cells were collected and lysed in NET-N buffer (150 mM NaCl, 1 mM EDTA, 50 mM Tris-HCl (pH 7.8), 0.5% Nonidet P-40 (NP-40), 1 mM phenylmethylsulfonyl fluoride, 0.5 mg/ml leupeptin and 0.5 mg/ml pepstatin) followed by mild sonification on ice. Protein lysate ([…]) was boiled in Laemmli buffer and separated on SDS-polyacrylamide gel electrophoresis for western blotting with specific antibodies. All lysates were assessed by Bradford assay for protein concentrations.

[2] = test system: HEL leukemic cells; assay: Western blot analysis in HEL leukemic cells (JAK2 V617F); format: cell-based, human; details: 24 h, Western blot
Protocol: Human leukemia cell line HEL with JAK2 V617F mutation (DSMZ Accession No: ACC-11).
as §3

[3] = test system: BV-173 cells; assay: Flow cytometric analysis of BV-173 cells, combination with imatinib; format: cell-based, human; details: BV-173, 1 μM MARB1 or 2 μM MARB2 combined with 0.2 or 0.5 μM imatinib, 48 h
Protocol: as §1, §2
The assay is carried out as described in Pietschmann et al., 2012 and Brandl et al. 2012. Briefly, 10^5 cells were fixed in 1 ml 70% EtOH with 0.05% Tween-20 overnight at 4° C. The following day, cells were washed with 3 ml 38 mM sodium citrate, pH 7.4, and incubated for 20 min at 37° C. in 0.5 ml 38 mM sodium citrate, pH 7.4, supplemented with 50 μg/ml propidium iodide and 10 μg/ml RNase-A. DNA contents of the cells were measured by fluorescence-activated cell sorter (FACS). […] Equally, the cell cycle profile can be assessed with this method.

[4] = test system: BV173 cells; assay: Cell cycle analysis by PI staining and flow cytometry (FACS method b); format: cell-based, human; details: BV173, PI staining
Protocol: 150,000 cells were seeded in 12 well plate and incubated for 2 h for adaption. Cells were harvested on ice and prepared for FACS analysis (following method b). The FACS blots were generated using FACS diva software. n=1
After harvesting the cells on ice and washing them with 1 ml cold PBS, the Pellet were fixed for 1 h in 80% Ethanol by −20° C. After centrifugation the supernatant was discarded and the pellet was resuspended in 333 μl PBS with 10 μg RNase. The cells were incubated 1 h at room temperature with RNase before adding propidium iodide to a final concentration of 16.4 μg/ml and measured by flow cytometry (BD FACS Canto II).

[5] = test system: PRXF LNCaP; assay: In vitro activity against solid tumor cell lines (FACS analysis method a); format: cell-based; details: Homo sapiens, Prostate
Protocol: (§4) Human prostate cancer cell lines PRXF DU-145, PRXF LNCaP, PRXF PC-3M (Oncotest GmbH, Freiburg, Germany)
(§5) The assay is carried out as described in Pietschmann et al., 2012 and Brandl et al. 2012. Briefly, 10^5 cells were fixed in 1 ml 70% EtOH with 0.05% Tween-20 overnight at 4° C. The following day, cells were washed with 3 ml 38 mM sodium citrate, pH 7.4, and incubated for 20 min at 37° C. in 0.5 ml 38 mM sodium citrate, pH 7.4, supplemented with 50 μg/ml propidium iodide and 10 μg/ml RNase-A. DNA contents of the cells were measured by fluorescence-activated cell sorter (FACS). This method allows detection of the apoptotic subG1-fraction, which has a DNA content below 2n due to apoptotic cleavage of DNA. Equally, the cell cycle profile can be assessed with this method.
(§6) The novel HDAC6 inhibitors were tested in a panel of tumor cell lines for cytostatic/toxic activities (see Table 2).

[6] = test system: PRXF PC-3M; assay: as above; format: cell-based; details: Homo sapiens, Prostate
Protocol: as §4, §5, §6

[7] = test system: PRXF DU-145; assay: as above; format: cell-based; details: Homo sapiens, Prostate
Protocol: as §4, §5, §6

[8] = test system: 42 solid tumor cell lines; assay: In vitro activity against solid tumor cell lines, mean of all lines; format: cell-based; details: average IC50 value from all 42 measurements
[9] = test system: RKO cells; assay: Western blot analysis in RKO colorectal cancer cells; format: cell-based, human
Protocol: FIG. 5. Various cancer cells were treated for 24 h as shown and tested by Western blot analysis.
(D) Inhibition of HDAC6 protects it from degradation by the addition of a pro-apoptotic agent (staurosporine, ST).
The total amount of vinculin serves as a loading control; Proof of tubulin acetylation serves as proof of the treatment accuracy. The loss of the caspase-3 corresponds to the induction of apoptosis (programmed cell death).
Human colon cancer cell lines RKO (ATCC Accession No: CRL-2577) and HCT-116 (DSMZ Accession No: ACC-581).
as §3

[10] = BV-173, 1 μM MARB1, 2 μM MARB2, 24 h

## CN1C(=O)C2CN(Cc3c2c2ccccc2n3Cc2ccc(C(=O)NO)cc2)C1=O (stereo not drawn) [MARB1, N-Hydroxy-4-((4-methyl-3,5-dioxo-3,4,5,6-tetrahydro-2,6-methano[1,3]diazocino[5,6-b]indol-11(1H)-yl)methyl)benzamide]
[1]; [10]
  acetylation of tubulin-α: hyperacetylation of tubulin-α
  expression of survivin: reduction of the expression of survivin
[1]; BV-173, 1 μM MARB1, 2 μM MARB2 or 2 mM VPA, 24 h
  acetylation of histone H3: Neither MARB1, nor MARB2 cause these alterations
[1]; BV-173, compound alone, 24 h
  BCR-ABL expression on the protein level: do not affect
[1]; BV-173, with imatinib, 24 h
  BCR-ABL stabilization/degradation in combination with imatinib: significantly inhibit the unwanted stabilization of BCR-ABL; also recorded: significant degradation of BCR-ABL
[2]
  concentration with about the same potency in hyperacetylation of tubulin-α: ~1000 nM
[3]
  apoptotic and necrotic sub-G1 populations: significantly increases
[4]
  changes in the cell cycle: no changes in the cell cycle
  subG1 population: no increase
[5]
  IC50: 1620 nM
[6]
  IC50: 5140 nM
[7]
  IC50: 2340 nM
[8]
  IC50: 5030 nM
[9]; 0.5 μM, 24 h
  hyperacetylation of tubulin: sufficient to induce hyperacetylation of tubulin
[9]; with staurosporine
  HDAC6 loss in staurosporin (ST)-treated cells: protects ST-treated RKO cells
